Values of other authors in patent publication US5275819A, “Drug loaded pollen grains with an outer coating for pulsed delivery” (Amer Particle Technologies Inc., priority 1991, dated 1994).

Settings: compared with GNRH

SMILES: CC(C)C[C@H](NC(=O)[C@@H](Cc1ccc2ccccc2c1)NC(=O)[C@H](Cc1ccc(O)cc1)NC(=O)[C@H](CO)NC(=O)[C@H](Cc1c[nH]c2ccccc12)NC(=O)[C@H](Cc1c[nH]cn1)NC(=O)[C@@H]1CCC(=O)N1)C(=O)N[C@@H](CCCNC(=N)N)C(=O)N1CCC[C@H]1C(=O)NCC(N)=O [Nafarelin]
- activity relative to GNRH: 200 times
